Measured values: patent US20130102631A1, “NOVEL MICROBIOCIDAL DIOXIME ETHER DERIVATIVES” (SYNGENTA CROP PROTECTION LLC, priority 2010, published 2013)

Experiments:
[1] = test system: Puccinia recondita f. sp. tritici; assay: Puccinia recondita f. sp. tritici / wheat / leaf disc preventative (brown rust); type: in vivo; settings: foliar, wheat leaf segments cv Kanzler, inoculated 1 day after application, assessed 7-9 days after application
Experimental: Puccinia recondita f. sp. Tritici/Wheat/Leaf Disc Preventative (Brown Rust): Wheat leaf segments cultivated variety (cv) Kanzler were placed on agar in 24-well plates and sprayed with formulated test compound diluted in water at an application rate of 200 ppm. The leaf disks were inoculated with a spore suspension of the fungus 1 day after application. The inoculated leaf segments were incubated at 19° C. and 75% relative humidity under a light regime of 12/12 h (light/dark) in a climate cabinet and the activity of a compound was assessed as percent disease control compared to untreated when an appropriate level of disease damage appears in untreated check leaf segments (7-9 days after application). […]-2.508; 5.561; 2.561; 2.513; 2.559; 2.556; 2.555; 2.374; 2.544; 2.537; 2.530; 2.525 (fraction B); 2.519; 2.516; 2.514; E/E-5.167; E/E-3.002; 2.512; E/E-2.507

[2] = test system: Puccinia recondita f. sp. tritici; assay: Puccinia recondita f. sp. tritici / wheat / leaf disc curative (brown rust); type: in vivo; settings: foliar, wheat leaf segments cv Kanzler, 200 ppm applied 1 day after inoculation, assessed 6-8 days after application
Experimental: Puccinia recondita f. sp. tritici/Wheat/Leaf Disc Curative (Brown Rust): Wheat leaf segments cv Kanzler were placed on agar in 24-well plates. The leaf segments were inoculated with a spore suspension of the fungus. The plates were stored in darkness at 19° C. and 75% relative humidity. The formulated test compound diluted in water was applied at an application rate of 200 ppm 1 day after inoculation. […]-2.508; 5.561; 2.561; E/E-2.208; 2.513; 2.559; 2.556; 2.555; 2.374; 2.552; 2.537; 2.519; 2.516; 2.514; […].002; 2.512; E/E-2.507

[3] = test system: Phaeosphaeria nodorum (Septoria nodorum); assay: Phaeosphaeria nodorum (Septoria nodorum) / wheat / leaf disc preventative (glume blotch); type: in vivo; settings: Parastagonospora nodorum, foliar, wheat leaf segments cv Kanzler, inoculated 2 days after application, assessed 5-7 days after application
Experimental: Phaeosphaeria nodorum (Septoria nodorum)/Wheat/Leaf Disc Preventative (Glume Blotch): Wheat leaf segments cv Kanzler were placed on agar in a 24-well plate and sprayed with formulated test compound diluted in water at an application rate of 200 ppm. The leaf disks are inoculated with a spore suspension of the fungus 2 days after application. The inoculated test leaf disks are incubated at 20° C. and 75% relative humidity under a light regime of 12/12 h (light/dark) in a climate cabinet and the activity of a compound is assessed as percent disease control compared to untreated when an appropriate level of disease damage appears in untreated check leaf disks (5-7 days after application). […]-2.508; 5.561; 2.561; E/E-2.208; P.57; 2.513; 2.559; 2.558; 2.557; 2.556; 2.555; 2.374; 2.544; 2.541; 2.539; 2.537; 2.536; 2.535; 2.533; 2.530; 2.526; 2.519; 2.510; 2.516; 2.514; E/E-5.167; E/E-3.002; 2.512

Pyrenophora teres = Pyrenophora teres / barley / leaf disc preventative (net blotch); type: in vivo; settings: foliar, barley leaf segments cv Hasso, inoculated two days after application, assessed 5-7 days after application
Experimental: Pyrenophora teres/Barley/Leaf Disc Preventative (Net Blotch): Barley leaf segments cv Hasso are placed on agar in a 24-well plate and sprayed with formulated test compound diluted in water at an application rate of 200 ppm. The leaf segments are inoculated with a spore suspension of the fungus two days after application of the test solution. The inoculated leaf segments are incubated at 20° C. and 65% relative humidity under a light regime of 12/12 h (light/dark) in a climate cabinet and the activity of a compound is assessed as disease control compared to untreated when an appropriate level of disease damage appears in untreated check leaf segments (5-7 days after application). […]-2.507; 5.561; 2.561; E/E-2.208; P.57; 2.513; 2.559; 2.558; 2.556; 2.555; 2.374; 2.552; 2.544; 2.537; 2.533; 2.530; 2.528; 2.519; 2.510; 2.516; 2.514; E/E-5.167; E/E-3.002; 2.512

Glomerella lagenarium = Glomerella lagenarium (Colletotrichum lagenarium) / liquid culture (anthracnose); type: cell-based; settings: Colletotrichum orbiculare; at ≦200 ppm, liquid culture PDB, inhibition of growth photometrically 3-4 days after application; read-out: control of Glomerella lagenarium
Experimental: Glomerella lagenarium (Colletotfichum lagenarium)/Liquid Culture (Anthracnose): Conidia of the fungus from cryogenic storage were directly mixed into nutrient broth (PDB potato dextrose broth). After placing a DMSO solution of test compound into a 96-well microtiter, the nutrient broth containing the fungal spores was added. The test plates were incubated at 24° C. and the inhibition of growth is measured photometrically 3-4 days after application. […]-2.509; 5.561; 2.561; E/E-2.208; P.57; 2.513; 2.559; 2.556; 2.555; 2.374; 2.552; 2.548; 2.544; 2.541; 2.540; 2.539; 2.537; 2.536; 2.533; 2.531; 2.530; 2.528; 2.526; 2.519; 2.510; 2.516; 2.514; E/E-5.167; E/E-3.002; 2.512; 2.514; Z/E-2.474

[4] = test system: Mycosphaerella arachidis (Cercospora arachidicola); assay: Mycosphaerella arachidis (Cercospora arachidicola) / liquid culture (early leaf spot); type: cell-based; settings: at ≦200 ppm, liquid culture PDB, inhibition of growth photometrically 4-5 days after application, read-out: control of Mycosphaerella arachidis
Experimental: Mycosphaerella arachidis (Cercospora arachidicola)/Liquid Culture (Early Leaf Spot): Conidia of the fungus from cryogenic storage were directly mixed into nutrient broth (PDB potato dextrose broth). After placing a DMSO solution of test compound into a 96-well microtiter plate, the nutrient broth containing the fungal spores was added. The test plates are incubated at 24° C. and the inhibition of growth was determined photometrically 4-5 days after application. […]-2.509; 5.561; 2.561; P.57; 2.513; 2.559; 2.558; 2.557; 2.556; 2.555; 2.374; 2.553; 2.552; 2.551 (fraction B); 2.551 (fraction A); 2.544; 2.541; 2.539; 2.537; 2.536; 2.533; 2.532; 2.531; 2.530; 2.528; 2.526; 2.525 (fraction B); 2.525 (fraction A); 2.524; 2.520; 2.519; 2.510; 2.518; 2.517; 2.516; 2.514; […].002; 2.512; 2.511; 2.514

[5] = test system: Mycosphaerella graminicola (Septoria tritici); assay: Mycosphaerella graminicola (Septoria tritici) / liquid culture (Septoria blotch); type: cell-based; settings: Zymoseptoria tritici; at ≦200 ppm, liquid culture PDB, inhibition of growth photometrically 4-5 days after application; read-out: control of Mycosphaerella graminicola
[6] = test system: Blumeria graminis f. sp. tritici (Erysiphe graminis f. sp. tritici); assay: Blumeria graminis f. sp. tritici / wheat / leaf disc preventative (powdery mildew on wheat); type: in vivo; settings: foliar, wheat leaf segments cv. Kanzler, inoculated 1 day after application, assessed 6-8 days after application
Experimental: Blumeria graminis f. sp. tritici (Erysiphe graminis f. sp. tritici)/Wheat/Leaf Disc Preventative (Powdery Mildew on Wheat):
Wheat leaf segments cv. Kanzler were placed on agar in a 24-well plate and sprayed with the formulated test compound diluted in water at an application rate of 200 ppm. The leaf disks were inoculated by shaking powdery mildew infected plants above the test plates 1 day after application. The inoculated leaf disks were incubated at 20° C. and 60% relative humidity under a light regime of 24 h darkness followed by 12 h/12 h (dark/light) in a climate chamber and the activity of a compound was assessed as percent disease control compared to untreated when an appropriate level of disease damage appears on untreated check leaf segments (6-8 days after application). The following compounds gave at least 80% control of Blumeria graminis: E/E-2.168, E/E-2.474, E/E-2.002; 5.561; 2.561; E/E-2.208; 2.513; 2.559; 2.557; 2.556; 2.555; 2.374; 2.552; 2.537; 2.533; 2.530; 2.528; 2.526; 2.519; 2.510; 2.516; 2.514; E/E-5.167; E/E-3.002; 2.512; 2.511

Gaeumannomyces graminis = Gaeumannomyces graminis / liquid culture (take-all of cereals); type: cell-based; settings: at ≦200 ppm, liquid culture PDB, inhibition of growth photometrically 4-5 days after application, read-out: control of Gaeumannomyces graminis
Experimental: Gaeumannomyces graminis/Liquid Culture (Take-All of Cereals): Mycelial fragments of the fungus from cryogenic storage were directly mixed into nutrient broth (PDB potato dextrose broth). After placing a DMSO solution of test compound into a 96-well microtiter plate, the nutrient broth containing the fungal spores is added. The test plates were incubated at 24° C. and the inhibition of growth was determined photometrically 4-5 days after application. […]-2.509; 5.561; 2.561; P.57; 2.513; 2.559; 2.558; 2.557; 2.556; 2.555; 2.374; 2.553; 2.552; 2.551 (fraction B); 2.551 (fraction A); 2.539; 2.533; 2.528; 2.526; 2.525 (fraction B); 2.525 (fraction A); 2.524; 2.523; 2.521; 2.520; 2.519; 2.510; 2.518; 2.516; 2.514; E/E-5.167; E/E-3.002; 2.512; E/E-2.508

[7] = test system: Thanatephorus cucumeris (Rhizoctonia solani); assay: Thanatephorus cucumeris (Rhizoctonia solani) / liquid culture (foot rot, damping-off); type: cell-based; settings: at ≦200 ppm, liquid culture PDB, inhibition of growth photometrically 3-4 days after application, read-out: control of Thanatephorus cucumeris
Experimental: Thanatephorus cucumeris (Rhizoctonia solani)/Liquid Culture (Foot Rot, Damping-Off Mycelia fragments of a newly grown liquid culture of the fungus are directly mixed into nutrient broth (PDB potato dextrose broth). After placing a DMSO solution of the test compounds into a 96-well microtiter, the nutrient broth containing the fungal material was added. The test plates were incubated at 24° C. and the inhibition of growth was determined photometrically 3-4 days after application. […]-2.508 5.561; 2.561; P.57; 2.513; 2.559; 2.558; 2.553; 2.533; 2.530; 2.526; 2.519; 2.517; 2.516; 2.514; 2.512; 2.514

[8] = test system: Monographella nivalis (Microdochium nivale); assay: Monographella nivalis (Microdochium nivale) / liquid culture (foot rot cereals); type: cell-based; settings: at ≦200 ppm, liquid culture PDB, inhibition of growth photometrically 4-5 days after application, read-out: control of Monographella nivalis
Experimental: Monographella nivalis (Microdochium nivale)/Liquid Culture (Foot Rot Cereals): Conidia of the fungus from cryogenic storage were directly mixed into nutrient broth (PDB potato dextrose broth). After placing a DMSO solution of test compound into a 96-well microtiter plate, the nutrient broth containing the fungal spores was added. The test plates were incubated at 24° C. and the inhibition of growth was determined photometrically 4-5 days after application. […].57; 2.513; 2.559; 2.558; 2.556; 2.555; 2.374; 2.553; 2.551 (fraction B); 2.551 (fraction A); 2.548; 2.544; 2.542; 2.541; 2.539; 2.536; 2.535; 2.533; 2.530; 2.528; 2.526; 2.525 (fraction B); 2.525 (fraction A); 2.524; 2.519; 2.518; 2.516; 2.514; E/E-5.167; 2.512; 2.514

Cc1ccc2c(n1)/C(=N/OCC(C)(C)CO/N=C(\c1ccncc1)c1ccccn1)CCC2 [Compound 2.537]
≥ 80%: pest or weed control at 200 ppm [1] | pest or weed control at 200 ppm [2] | pest or weed control at 200 ppm [3] | pest or weed control at 200 ppm (Pyrenophora teres) | inhibition of growth at up to 200 µg/mL (Glomerella lagenarium) | inhibition of growth at up to 200 µg/mL [4] | inhibition of growth at up to 200 µg/mL [5] | pest or weed control at 200 ppm [6]

Cc1ccc2c(n1)/C(=N/OCC(C)(C)CO/N=C/c1ncc(Cl)cc1F)CCC2 [Compound 2.552]
≥ 80%: pest or weed control at 200 ppm [2] | pest or weed control at 200 ppm (Pyrenophora teres) | inhibition of growth at up to 200 µg/mL (Glomerella lagenarium) | inhibition of growth at up to 200 µg/mL [4] | inhibition of growth at up to 200 µg/mL [5] | inhibition of growth at up to 200 µg/mL (Gaeumannomyces graminis) | pest or weed control at 200 ppm [6]

Cc1ccc2c(n1)/C(=N/OCC(C)(C)CO/N=C/c1ccc(OCc3ccccc3)cn1)CCC2 [Compound 2.553]
≥ 80%: inhibition of growth at up to 200 µg/mL [4] | inhibition of growth at up to 200 µg/mL [5] | inhibition of growth at up to 200 µg/mL (Gaeumannomyces graminis) | inhibition of growth at up to 200 µg/mL [7] | inhibition of growth at up to 200 µg/mL [8]

C/C(=N\OCC(C)(C)CO/N=C1\CCCc2ccc(C#CCO)nc21)c1cc(C)cc(C)n1 [Compound 2.558]
≥ 80%: pest or weed control at 200 ppm [3] | pest or weed control at 200 ppm (Pyrenophora teres) | inhibition of growth at up to 200 µg/mL [4] | inhibition of growth at up to 200 µg/mL [5] | inhibition of growth at up to 200 µg/mL (Gaeumannomyces graminis) | inhibition of growth at up to 200 µg/mL [7] | inhibition of growth at up to 200 µg/mL [8]

C/C(=N\OCC(C)(C)CO/N=C1\CCCc2c(C)cc(CF)nc21)c1cc(C)cc(C)n1 [E/E-2.208]
≥ 80%: pest or weed control at 200 ppm [2] | pest or weed control at 200 ppm [3] | pest or weed control at 200 ppm (Pyrenophora teres) | inhibition of growth at up to 200 µg/mL (Glomerella lagenarium) | pest or weed control at 200 ppm [6]
